From patent US20240000872A1, “NOVEL BACTERIOPHAGE THAT LYSES ACINETOBACTER GENUS BACTERIA HAVING RESISTANCE TO ANTIBIOTICS” (priority 2020, published 2024)

Tested on: Acinetobacter baumannii strains
Test: Antibiotic susceptibility test (CLSI disk diffusion test method, read per CLSI 2016); as to antibiotic susceptibility S/I/R: key: ‘S’ means susceptible; ‘I’ means intermediate; ‘R’ means resistant; as to antibiotic susceptibility class: key: ‘S’ means susceptible; ‘I’ means intermediate; ‘R’ means resistant; as to susceptibility category (S/I/R): key: ‘S’ means susceptible; ‘I’ means intermediate; ‘R’ means resistant
Format: cell-based
Parameters: antibiotic susceptibility test value / susceptibility test value (number given before S/I/R) / antibiotic susceptibility value: unit not given here

piperacillin-tazobactam
antibiotic susceptibility class (host strain YMC14/01/C29): R | antibiotic susceptibility test value (host strain YMC14/01/C29): 128 | antibiotic susceptibility class (host strain YMC14/01/IP122): R | antibiotic susceptibility test value (host strain YMC14/01/IP122): 128 | antibiotic susceptibility class (host strain YMC14/01/L8): R | antibiotic susceptibility test value (host strain YMC14/01/L8): 128 | antibiotic susceptibility class (host strain YMC14/01/P31): R | antibiotic susceptibility test value (host strain YMC14/01/P31): 128 | antibiotic susceptibility class (host strain YMC14/01/P117): R | antibiotic susceptibility test value (host strain YMC14/01/P117): 128 | antibiotic susceptibility class (host strain YMC14/01/P224): R | antibiotic susceptibility test value (host strain YMC14/01/P224): 128 | antibiotic susceptibility class (host strain YMC14/01/P727): R | antibiotic susceptibility test value (host strain YMC14/01/P727): 128 | antibiotic susceptibility class (host strain YMC14/01/P728): R | antibiotic susceptibility test value (host strain YMC14/01/P728): 128 | antibiotic susceptibility class (host strain YMC14/01/R130): R | antibiotic susceptibility test value (host strain YMC14/01/R130): 128 | antibiotic susceptibility class (host strain YMC14/01/R160): R | antibiotic susceptibility test value (host strain YMC14/01/R160): 128 | antibiotic susceptibility class (host strain YMC14/01/R198): R | antibiotic susceptibility test value (host strain YMC14/01/R198): 128 | antibiotic susceptibility class (host strain YMC14/01/R257): R | antibiotic susceptibility test value (host strain YMC14/01/R257): 128 | antibiotic susceptibility class (host strain YMC14/01/R270): R | antibiotic susceptibility test value (host strain YMC14/01/R270): 128 | antibiotic susceptibility class (host strain YMC14/01/R324): R | antibiotic susceptibility test value (host strain YMC14/01/R324): 128 | antibiotic susceptibility class (host strain YMC14/01/R443): R | antibiotic susceptibility test value (host strain YMC14/01/R443): 128 | antibiotic susceptibility class (host strain YMC14/01/R451): R | antibiotic susceptibility test value (host strain YMC14/01/R451): 128 | antibiotic susceptibility class (host strain YMC14/01/R560): R | antibiotic susceptibility test value (host strain YMC14/01/R560): 128 | antibiotic susceptibility class (host strain YMC14/01/R617): R | antibiotic susceptibility test value (host strain YMC14/01/R617): 128 | antibiotic susceptibility class (host strain YMC14/01/R671): R | antibiotic susceptibility test value (host strain YMC14/01/R671): 128 | antibiotic susceptibility class (host strain YMC14/01/R732): R | antibiotic susceptibility test value (host strain YMC14/01/R732): 128 | antibiotic susceptibility class (host strain YMC14/01/R767): R | antibiotic susceptibility test value (host strain YMC14/01/R767): 128 | antibiotic susceptibility class (host strain YMC14/01/R904): R | antibiotic susceptibility test value (host strain YMC14/01/R904): 128 | antibiotic susceptibility class (host strain YMC14/01/R905): R | antibiotic susceptibility test value (host strain YMC14/01/R905): 128 | antibiotic susceptibility class (host strain YMC14/01/R921): R | antibiotic susceptibility test value (host strain YMC14/01/R921): 128 | antibiotic susceptibility class (host strain YMC14/01/R941): R | antibiotic susceptibility test value (host strain YMC14/01/R941): 128 | antibiotic susceptibility class (host strain YMC14/01/R958): R | antibiotic susceptibility test value (host strain YMC14/01/R958): 128 | antibiotic susceptibility class (host strain YMC14/01/R1006): R | antibiotic susceptibility test value (host strain YMC14/01/R1006): 128 | antibiotic susceptibility class (host strain YMC14/01/R1199): R | antibiotic susceptibility test value (host strain YMC14/01/R1199): 128 | antibiotic susceptibility class (host strain YMC14/01/R1659): R | antibiotic susceptibility test value (host strain YMC14/01/R1659): 128 | antibiotic susceptibility class (host strain YMC14/01/R1722): R | antibiotic susceptibility test value (host strain YMC14/01/R1722): 128 | antibiotic susceptibility class (host strain YMC14/01/R1752): R | antibiotic susceptibility test value (host strain YMC14/01/R1752): 128 | antibiotic susceptibility class (host strain YMC14/01/R2429): R | antibiotic susceptibility test value (host strain YMC14/01/R2429): 128 | antibiotic susceptibility class (host strain YMC14/01/R2572): R | antibiotic susceptibility test value (host strain YMC14/01/R2572): 128 | antibiotic susceptibility class (host strain YMC14/01/R2855): R | antibiotic susceptibility test value (host strain YMC14/01/R2855): 128 | antibiotic susceptibility class (host strain YMC14/01/R2945): R | antibiotic susceptibility test value (host strain YMC14/01/R2945): 128 | antibiotic susceptibility class (host strain YMC14/01/R3007): R | antibiotic susceptibility test value (host strain YMC14/01/R3007): 128 | antibiotic susceptibility class (host strain YMC14/01/R3129): R | antibiotic susceptibility test value (host strain YMC14/01/R3129): 128 | antibiotic susceptibility class (host strain YMC14/01/R3317): R | antibiotic susceptibility test value (host strain YMC14/01/R3317): 128 | antibiotic susceptibility class (host strain YMC14/01/R3474): R | antibiotic susceptibility test value (host strain YMC14/01/R3474): 128 | antibiotic susceptibility class (host strain YMC14/01/R3574): R | antibiotic susceptibility test value (host strain YMC14/01/R3574): 128 | antibiotic susceptibility class (host strain YMC14/01/U313): R | antibiotic susceptibility test value (host strain YMC14/01/U313): 128 | antibiotic susceptibility class (host strain YMC14/01/U318): R | antibiotic susceptibility test value (host strain YMC14/01/U318): 128 | antibiotic susceptibility class (host strain YMC14/02/L18): R | antibiotic susceptibility test value (host strain YMC14/02/L18): 128 | antibiotic susceptibility class (host strain YMC14/02/P47): R | antibiotic susceptibility test value (host strain YMC14/02/P47): 128 | antibiotic susceptibility class (host strain YMC14/02/R1860): R | antibiotic susceptibility test value (host strain YMC14/02/R1860): 128 | antibiotic susceptibility class (host strain YMC14/02/R2417): R | antibiotic susceptibility test value (host strain YMC14/02/R2417): 128 | antibiotic susceptibility class (host strain YMC14/02/R2599): R | antibiotic susceptibility test value (host strain YMC14/02/R2599): 128 | antibiotic susceptibility class (host strain YMC14/02/R2668): R | antibiotic susceptibility test value (host strain YMC14/02/R2668): 128 | antibiotic susceptibility class (host strain YMC14/02/R2758): R | antibiotic susceptibility test value (host strain YMC14/02/R2758): 128 | antibiotic susceptibility class (host strain YMC14/02/R2781): R | antibiotic susceptibility test value (host strain YMC14/02/R2781): 128 | antibiotic susceptibility class (host strain YMC14/02/R3106): R | antibiotic susceptibility test value (host strain YMC14/02/R3106): 128 | antibiotic susceptibility class (host strain YMC14/02/R3419): R | antibiotic susceptibility test value (host strain YMC14/02/R3419): 128 | antibiotic susceptibility class (host strain YMC14/02/U1607): R | antibiotic susceptibility test value (host strain YMC14/02/U1607): 128 | antibiotic susceptibility class (host strain YMC14/03/L9): R | antibiotic susceptibility test value (host strain YMC14/03/L9): 128 | antibiotic susceptibility class (host strain YMC14/03/P471): R | antibiotic susceptibility test value (host strain YMC14/03/P471): 128 | antibiotic susceptibility class (host strain YMC14/03/R122): R | antibiotic susceptibility test value (host strain YMC14/03/R122): 128 | antibiotic susceptibility class (host strain YMC14/03/R217): R | antibiotic susceptibility test value (host strain YMC14/03/R217): 128 | antibiotic susceptibility class (host strain YMC14/03/R380): R | antibiotic susceptibility test value (host strain YMC14/03/R380): 128 | antibiotic susceptibility class (host strain YMC14/03/R618): R | antibiotic susceptibility test value (host strain YMC14/03/R618): 128 | antibiotic susceptibility class (host strain YMC14/03/R2144): R | antibiotic susceptibility test value (host strain YMC14/03/R2144): 128 | antibiotic susceptibility class (host strain YMC14/03/U4616): R | antibiotic susceptibility test value (host strain YMC14/03/U4616): 128 | antibiotic susceptibility class (host strain YMC14/04/R1078): R | antibiotic susceptibility test value (host strain YMC14/04/R1078): 128 | antibiotic susceptibility class (host strain YMC14/04/R1080): R | antibiotic susceptibility test value (host strain YMC14/04/R1080): 128 | antibiotic susceptibility S/I/R (host strain YMC14/06/R2359): R | antibiotic susceptibility value (host strain YMC14/06/R2359): 128 | susceptibility category (S/I/R) (host strain YMC14/06/R2359): R | susceptibility test value (number given before S/I/R) (host strain YMC14/06/R2359): 128 | antibiotic susceptibility S/I/R (host strain YMC14/08/R1169): R | antibiotic susceptibility value (host strain YMC14/08/R1169): 128 | susceptibility category (S/I/R) (host strain YMC14/08/R1169): R | susceptibility test value (number given before S/I/R) (host strain YMC14/08/R1169): 128 | antibiotic susceptibility S/I/R (host strain YMC14/08/T90): R | antibiotic susceptibility value (host strain YMC14/08/T90): 128 | susceptibility category (S/I/R) (host strain YMC14/08/T90): R | susceptibility test value (number given before S/I/R) (host strain YMC14/08/T90): 128 | antibiotic susceptibility S/I/R (host strain YMC15/02/R436): R | antibiotic susceptibility value (host strain YMC15/02/R436): 128 | susceptibility category (S/I/R) (host strain YMC15/02/R436): R | susceptibility test value (number given before S/I/R) (host strain YMC15/02/R436): 128 | antibiotic susceptibility S/I/R (host strain YMC15/02/T28): R | antibiotic susceptibility value (host strain YMC15/02/T28): 128 | susceptibility category (S/I/R) (host strain YMC15/02/T28): R | susceptibility test value (number given before S/I/R) (host strain YMC15/02/T28): 128 | antibiotic susceptibility S/I/R (host strain YMC15/03/R1604): R | antibiotic susceptibility value (host strain YMC15/03/R1604): 128 | susceptibility category (S/I/R) (host strain YMC15/03/R1604): R | susceptibility test value (number given before S/I/R) (host strain YMC15/03/R1604): 128 | antibiotic susceptibility S/I/R (host strain YMC15/09/R1869): R | antibiotic susceptibility value (host strain YMC15/09/R1869): 128 | susceptibility category (S/I/R) (host strain YMC15/09/R1869): R | susceptibility test value (number given before S/I/R) (host strain YMC15/09/R1869): 128 | antibiotic susceptibility S/I/R (host strain YMC16/01/P11): R | antibiotic susceptibility value (host strain YMC16/01/P11): 128 | susceptibility category (S/I/R) (host strain YMC16/01/P11): R | susceptibility test value (number given before S/I/R) (host strain YMC16/01/P11): 128 | antibiotic susceptibility S/I/R (host strain YMC16/01/R123): R | antibiotic susceptibility value (host strain YMC16/01/R123): 128 | susceptibility category (S/I/R) (host strain YMC16/01/R123): R | susceptibility test value (number given before S/I/R) (host strain YMC16/01/R123): 128 | antibiotic susceptibility S/I/R (host strain YMC16/01/R198): R | antibiotic susceptibility value (host strain YMC16/01/R198): 128 | susceptibility category (S/I/R) (host strain YMC16/01/R198): R | susceptibility test value (number given before S/I/R) (host strain YMC16/01/R198): 128 | antibiotic susceptibility S/I/R (host strain YMC16/01/R353): R
